# According to patent US20150252048A1, “SUBSTITUTED N-(3-PYRIMIDIN-4-YL)PHENYL)ACRYLAMIDE ANALOGS AS TYROSINE RECEPTOR KINASE BTK INHIBITORS” (UNIVERSITY OF UTAH RESEARCH FOUNDATION, priority 2012, published 2015):
# Where two headings read alike, the source gives them in different places.
# Assay: Pharmacokinetics in rat
# Assay type: in vivo, male Sprague Dawley rats
# Experimental: The pharmacokinetic behavior of a representative disclosed compound, compound 3 (N-(3-(6-((3-morpholinophenyl)amino)-1H-pyrazolo[3,4-d]pyrimidin-4-yl)phenyl)acrylamide), which corresponds to compound 3 in Table I, was also evaluated in rat. A study was conducted using three male Sprague Dawley rats in each group as shown below:
# The solution formulations were prepared as follows: (A) intravenous route (“i.v.”): a weighed quantity of 3 (10.45 mg) was transferred into a 10 mL clean glass vial. To this 0.231 mL of ethanol (4.5%) was added, vortexed and sonicated. To this 1.028 mL of propylene glycol (20%) was added, vortexed and sonicated. 1.543 mL of PEG400 (30%) was added, vortexed and sonicated. Finally 2.340 mL of water (45.5%) was added gradually, vortexed and sonicated to make a solution of 2 mg/mL concentration. The final solution was filtered using syringe filter (0.22 μm).; and (B) a weighed quantity of SC-1344 (27.43 mg) was transferred into a 10 mL clean glass vial. To this 0.304 mL of ethanol (4.5%) was added, vortexed and sonicated. To this 1.350 mL of propylene glycol (20%) was added, vortexed and sonicated. 2.024 mL of PEG400 (30%) was added, vortexed and sonicated. Finally 3.070 mL of water (45.5%) was added gradually, vortexed and sonicated to make a solution of 4 mg/mL concentration. The final solution was filtered using syringe filter (0.22 μm).
# Bioanalysis was performed using fit-for-purpose LC-MS/MS method for the quantification of 3 in rat plasma samples. The calibration curve (CC) for the method consisted of nine non-zero calibration standards along with a double blank and zero standard samples. Study samples were analyzed along with two sets of quality control samples (6 QC samples; low, medium and high QC samples in triplicate). Briefly, the LC-MS/MS method used the following parameters: a) gradient mobile phase (Pump A: 0.1% Formic acid in water; Pump B: 100% methanol); b) XBridge C8, 50×4.6 mm, 3.5μ (Waters) column; c) 10 μL injection volume; d) 1.00 mL/min flow rate; e) 3.50 min run time; f) 10° C. sample cooler temperature; and g) 40° C. column oven temperature. The sample calibration curve was 1.02-1023 ng/mL, with an internal standard (telmisartan) at 0.2 μg/mL. Briefly, biological samples were prepared as follows: 50 μL of sample was mixed with 150 μL of internal standard, then mixture was vortexed for 5 min at 800 rpm, followed by centrifugation at 4000 rpm for 5 min; 150 μL of the sample supernatant was transferred into a separate tube and diluted with 75 μL of methanol: water (1:1), followed by injection into LC/MS/MS.
# Plasma pharmacokinetic parameters were calculated using the non-compartmental analysis tool of Phoenix software (Version 6.3) and were determined from individual animals in each group. The area under the plasma concentration-time curve (AUC0-t and AUCinf), elimination half-life (T1/2), clearance (CL), volume of distribution (Vss) and Mean residence time (MRT) were calculated from intravenous group. The peak plasma concentration (Cmax), time to achieve peak plasma concentration (Tmax), AUC0-t and AUCinf, and absolute oral bioavailability (F) were calculated from the oral group.
# The mean plasma concentration-time profiles are shown in FIGS. 10 and 11, i.e. the mean concentration values of the individual values obtained from each rat in the study group at the indicated time points.
structure (smiles),measurement,setting,value
"C=CC(=O)Nc1cccc(-c2nc(Nc3cccc(N4CCOCC4)c3)nc3[nH]ncc23)c1 [Compound 3, N-(3-(6-((3-morpholinophenyl)amino)-1H-pyrazolo[3,4-d]pyrimidin-4-yl)phenyl)acrylamide]",AUC(0-t),"IV 5 mg/kg, solution, 5 mg/kg",1063 ng·h/mL
same,CL,"IV 5 mg/kg, solution, 5 mg/kg",79.7 mL/min/kg
same,T1/2,"IV 5 mg/kg, solution, 5 mg/kg",2.71 h
same,Vss,"IV 5 mg/kg, solution, 5 mg/kg",7.91 L/kg
same,F (absolute oral bioavailability),"PO 20 mg/kg vs IV 5 mg/kg, AUC0-t and nominal doses used",2.44%
same,Cmax,"PO 20 mg/kg, solution, 20 mg/kg",23.1 ng/mL
same,AUC(0-inf),"male, Sprague Dawley, plasma, IV 5 mg/kg, solution",1070 ng·h/mL
same,Cmax,"male, Sprague Dawley, plasma, IV 5 mg/kg, solution, read-out: Cmax (back-extrapolated concentration)",1840 ng/mL
same,AUC(0-inf),"male, Sprague Dawley, plasma, PO 20 mg/kg, solution, one animal data",254 ng·h/mL
same,Tmax,"male, Sprague Dawley, plasma, PO 20 mg/kg, solution, read-out: Tmax (median)",2 h
same,AUC(0-t),"male, Sprague-Dawley, plasma, PO 20 mg/kg, solution, read-out: AUC0-t",104 ng·h/mL
